From ChEMBL document CHEMBL5038648, “Dolabellane Diterpenes and Elemane Alkaloids from the Soft Coral Clavularia inflata Collected in the South China Sea” (J Nat Prod, 2022)
Calls of active or inactive are those of the source. The rule behind the calls is not given here.

Legend:
[1] = species on record: Danio rerio; assay: Antiinflammatory activity in transgenic fluorescent zebrafish expressing EGFP assessed as reduction in CuSO4 induced number of macrophages surrounding the neuromast at 20 uM preincubated for 2 hrs followed by Cuso4 addition and measured after 1 hr by fluorescence microscopic analysis; assay type: functional, organism-based; details: time 3.0 hrs
[2] = species on record: Danio rerio; assay: Antiinflammatory activity in transgenic fluorescent zebrafish expressing EGFP assessed as reduction in CuSO4 induced macrophage migration at 20 uM preincubated for 2 hrs followed Cuso4 addition and measured after 1 hr by fluorescence microscopic analysis; assay type: functional, organism-based; details: time 3.0 hrs

Compound	Activity [1]	Activity [2]
CC1=C2CC[C@@]3(C)CC/C(C)=C/C(=O)C[C@@H](C)C[C@@H](OC1=O)[C@H]23	Active	Active
CC1=C2CC[C@@]3(C)/C=C/[C@]4(C)C[C@](O)(C[C@@H](C)C[C@@H](OC1=O)[C@H]23)OO4	Active	Active
C=C1CC/C=C(\C)C[C@H]2OC(=O)C(C)=C3CC[C@@](C)(CC1)[C@@H]32	Active	Active
C=C[C@@]1(C)C[C@H]2NC(=O)C(C)=C2C[C@@H]1C(=C)C(=O)OC	Active	Active
CC1=C2C(=O)C[C@@]3(C)CC/C(C)=C\C(=O)C[C@@H](C)C[C@@H](OC1=O)[C@H]23	Active	Active
C=C[C@]1(C)C[C@@H]2NC(=O)C(C)=C2C[C@H]1C(=C)C(=O)OC	Active	Active
C=C1CC/C=C(\C)C[C@@H](O)[C@@H]2C(C(C)(C)O)=CC[C@@]2(C)CC1	Active	Active
COc1ccc2c(c1)c(CC(=O)O)c(C)n2C(=O)c1ccc(Cl)cc1	Active	Active
CC1=C2CC[C@@]3(C)CC/C(C)=C\C(=O)C[C@@H](C)C[C@@H](OC1=O)[C@]23OO	Active	Active
